The values that follow are results of earlier work, collected in paper PMC4261083, “An atypical residue in the pore of Varroa destructor GABA-activated RDL receptors affects picrotoxin block and thymol modulation” (Insect Biochemistry and Molecular Biology, 2014).

The subject of the data set is Tetranychus RDL receptors. Details: method as in Asahi et al., 2014. The conditions noted are these: expressed in Xenopus oocytes, ref Asahi et al., 2014, cited from earlier work.

`N#Cc1nn(-c2c(Cl)cc(C(F)(F)F)cc2Cl)c(N)c1[S+]([O-])C(F)(F)F` (centres unmarked) [fipronil]: the “Sensitivity of Tetranychus RDL receptors to fipronil” value was “resistant”.
Usually IC50 stands for the midpoint of a concentration-inhibition curve. Consider `Cc1cc(C2=NOC(c3cc(Cl)cc(Cl)c3)(C(F)(F)F)C2)ccc1C(=O)NCC(=O)NCC(F)(F)F` (centres unmarked) [fluralaner], for which the IC50 (read-out: IC50 for block of Tetranychus RDL receptors) is approximately 10 nM.
